In patent US5466716A, “Liposomal trimethylsphingosine” (The Biomembrane Institute, priority 1994, dated 1995):
“Also recorded” adds a separate entry of the source. Read-outs that look alike come from different tables or passages of the source.

Columns and labels:
water solubility = format: physicochemical; conditions: for appearance of aqueous solution: neutral or physiologic pH
Source text: For comparison purposes those same test cells also are exposed to sphingosine and N,N-dimethylsphingosine.

HL60 cells = experiment: HL60 cell binding to activated platelets; format: cell-based, human; conditions: thrombin- and PMA-stimulated platelets
Experimental: FIGS. 12A and 12B depict results of representative experiments assessing the degree of HL60 binding to platelets. Platelets were exposed to inhibiting compounds (symbols are the same as in the legend to FIGS. 11A and 11B) and affixed to the wells of a microtiter plate. HL60 cells labelled with tritiated thymidine were introduced into the wells and the amount of bound radioactivity was assessed.
HL60 (a human promylelocytic cell line available from the ATCC under accession number CCL 240) adhesion on resting or activated platelet-coatedsolid phase was evaluated as follows. Each well of a 48-well plate (Costar Scientific, Cambridge, Mass.) was filled with a poly-L-lysine solution (100 μg/ml in PBS) and incubated for 1 hour. Each well then was washed with PBS and then 150 μl of PBS containing 6×10^7 resting or activated platelets were added to each well and the plate was incubated for 1 hour. Plates were centrifuged (300×g for 7 minutes) and incubated a further 30 minutes at room temperature. Bound platelets were fixed by addition of 0.1% (w/v) glutaraldehyde in PBS for 2 minutes at 4° C. Each well was washed with 10 mM glycine in PBS and plates were incubated with 5% (w/v) BSA containing 0.1% (w/v) sodium azide, 10 mM glycine in PBS for 1 hour at room temperature.
After washing with culture medium (RPMI 1640 containing 5% (v/v) FCS), 1×10^6 HL60 cells labeled with [^3 H]thymidine were added to each well. HL60 was maintained in RPMI 1640 medium (purchased from Irvine Scientific, Santa Ana, Calif.) supplemented with 10% FCS (Hyclone, Logan, Utah). (Radiolabeling of HL60 cells used for cell adhesion assays was performed by incubating cells with 2 μCi/ml of [^3 H]thymidine overnight.) After incubation for 45 minutes at room temperature, unbound cells were aspirated and wells were washed once with medium (RPMI 1640 containing 5% (v/v) FCS), bound cells were detached with 0.05% (w/v) trypsin-0.02% (w/v) EDTA (Irvine Scientific) in PBS and the levels of radioactivity in each well were determined in a liquid scintillation counter.

[1] = neutrophil viability (trypan blue exclusion); format: cell-based, human; conditions: neutrophils
Experimental: (§1) The viability was evaluated by trypan blue exclusion assay. The cell
(§2) incubated at 37° C. for 10 min with effectors. The aliquot was
(§3) mixed with an equal amount of trypan blue solution and immediately counte
(§4) under a Nikon light microscope.

neutrophils [2] = experiment: neutrophil viability (trypan blue exclusion); format: cell-based, human; conditions: for cytotoxic damage to neutrophils: 25 μM
Experimental: as §1, §2, §3, §4

neutrophils [3] = experiment: phagokinetic activity of neutrophils on gold sol-coated plates; format: cell-based, human; conditions: for activity at 4.5 µM / activity at 12 µM: Homo sapiens, Neutrophil; for activity at 4.5 µM: 2 h, read-out: Area Swept; for activity at 12 µM: read-out: Area Swept (recovery of phagokinetic activity)
Experimental: The phagokinetic activity of neutrophils on gold sol-coated plates can be determined by a technique essentially as taught in Albrecht-Buehler (Cell, 11, 395, 1977). […] Thus, the inhibitory effect of TMS on phagokinetic activity is not dependent on cytotoxicity.
.sctn. The area swept by neutrophils was determined in photographs of the
monolayers. The regions cleared by neutrophil movement were then cut out
Phagokinetic activity was observed by tracing tracks of neutrophils moving on a glass substrate covered with gold colloid particles. The technique was described originally by Albrecht-Buehler, supra, using 3T3 and other cell lines. Briefly, 22×22 mm square glass coverslips (Corning Glass Works, Corning, N.Y.) were dipped for 1 min into 1% BSA prepared in Milli Q water. The BSA solution was prepared fresh each day and passed through 0.20 μm Nalgene filters (Nalgene Labware Division, Rochester, N.Y.).
The coverslip then was drained by touching a Kim-wipe paper towel to its edge, dipped into 100% ethanol and rapidly and completely dried in a 85° C. hot airstream. The coverslip was placed in a 3.5 cm Falcon plastic dish. Then 5.4 ml of AuCl4 H and 18 ml of 36.5 mM Na2 CO3 were added to 33 ml of distilled water and heated. Immediately after reaching the boiling point, 5.4 ml of 0.1% formaldehyde in water were added quickly and mixed. The suspension of gold particles forming a brownish color was distributed immediately onto the dish (2 ml each) and the coverslip was incubated for 2 hr at 37° C.
Particle-coated coverslips were washed in PBS, then twice in RPMI 1640 and finally put in another 3.5 cm Falcon plastic dish containing 2 ml of RPMI 1640 with glutamate and pyruvate. The coverslips were stored at 4° C. and used within 24 hr after preparation.
The freshly-purified neutrophils (1×10^4 cells/plate) were added onto the colloid-coated coverslip. TMS and other effectors were added into the medium on the plate. As a control, the solvent of the effectors (50% ethanol) was added at an equal amount. At that concentration (0.1%), ethanol brought no significant effect on neutrophil activities. To observe cell recovery from exposure to the effectors, neutrophils (2×10^5 cells/ml) were pre-incubated at 37° C. with 12 μM of TMS, SPN and DMS, then distributed to the dish dropwise, diluting the effectors 200-fold. Incubation was conducted under 5% CO2 at 37° C. for 2 hr and terminated by adding 200 μl of 10% formaldehyde. Microscopic examination of each plate was performed with a Nikon microscope, connected to a Polaroid camera for recordings. Phagokinetic activity was measured by tracing the track of a neutrophil. The track was recorded with photographs, then the area was measured by cutting and weighing there swept area.

[4] = chloride salts and slightly acidic pH
[5] = Table IV, 12 μM preincubation then 200-fold dilution, control 100
[6] = Table III, control 94, read-out: Viability

Compound | water solubility (water solubility; [4]) | appearance of aqueous solution (water solubility) | water solubility (water solubility; particularly at physiologic pH) | inhibition of HL60 cell binding (HL60 cells) | cytotoxicity at 10 min, 15 µM [1] [%] | viability at 10 min, 5 µM ([1]; Table V, 37° C., 10 min) [%] | viability at 10 min, 25 µM ([1]; Table V, 37° C., 10 min) [%] | viability at 10 min, 45 µM ([1]; Table V, 37° C., 10 min) [%] | cytotoxic damage to neutrophils (neutrophils [2]) | activity at 4.5 µM (neutrophils [3]; Table I, 4.5 μM, control 100) [%] | activity at 12 µM (neutrophils [3]; [5]) [%] | viability at 10 min, 15 µM [1, 6] [%] | other results
CCCCCCCCCCCCC/C=C/[C@@H](O)[C@H](CO)N(C)C [DMS, (4E)-N,N-dimethyl-D-erythro-sphingosine] | soluble in water | tend to form opaque suspensions | less water soluble | inhibited strongly | 12 to 13 | 96 ± 3 | 29 ± 5 | 0 | major cytotoxic damage to neutrophils | 26 ± 25 | 32 ± 19 |  | viability at 10 min, 15 µM ([1]; Table V, 37° C., 10 min, read-out: Viability of neutrophils): 88 ± 8%
CCCCCCCCCCCCC/C=C/[C@@H](O)[C@@H](N)CO [SPN, sphingosine] | soluble in water | tend to form opaque suspensions | less water soluble | minimally inhibited | 12 to 13 | 95 ± 3 | 53 ± 18 | 5 ± 5 | major cytotoxic damage to neutrophils |  |  | 87 ± 5.3 | activity at 4.5 µM (neutrophils [3]): 14 ± 7%; activity at 12 µM (neutrophils [3]): 42 ± 24%
CCCCCCCCCCCCC/C=C/[C@@H](O)[C@H](CO)[N+](C)(C)C [TMS, N,N,N-trimethylsphingosine] |  |  | highly water soluble | inhibited strongly |  | 98 ± 2 | 83 ± 6 | 63 ± 8 | negligible | 16 ± 18 | 92 ± 34 | 97 ± 2.9 | solubility in aqueous solvents (water solubility): excellent solubility; solubility (water solubility; acidic, neutral or basic conditions): stable, clear solutions; cell cytotoxicity (neutrophils [2]; 15 μM): no significant cell cytotoxicity; cell viability during transmigration (neutrophils [2]; 15 μM): without affecting the viability of the cells; cell viability (neutrophils [2]; Examples 9 and 10): without an adverse effect on cell viability; also recorded: without effecting cell viability; suppression of phagokinetic activity (neutrophils [3]; 1.5 μM): suppressed significantly; suppression of phagokinetic activity (neutrophils [3]; 4.5 μM): completely suppressed; neutrophil migration (phagokinetic) (neutrophils [3]; Example 9): inhibited neutrophil migration; reversal of inhibitory effect on phagokinetic activity (neutrophils [3]; medium replaced with TMS-free medium): reversed completely
Calphostin C |  |  |  |  |  |  |  |  |  |  |  |  | Viability (neutrophils [2]; Table III, 5 μM, control 94, 10 min): 46 ± 5.5; Area Swept (neutrophils [3]; Table I, 0.5 μM, control 100, 120 min): 39 ± 11%
